Data on 1 compound can be found in BindingDB's records for doi:10.1016/j.ejmech.2019.111646 (Hangzhou Xixi Hospital, 2019).

A short description of assay [1]: Inhibition of 20S proteasome beta 2c (unknown origin) after 1 hr by fluorescence based assay.
Assay [2] in a line: Inhibition of 20S proteasome beta 1c (unknown origin) after 1 hr by fluorescence based assay.

For `COc1ccc([C@@H](O)[C@H](NC(=O)[C@H](C)NC(=O)CN2CCOCC2)C(=O)N[C@@H](CC2=CCCC2)C(=O)[C@@]2(C)CO2)cc1` [Kzr-616], the IC50 (in general, the midpoint of a concentration-inhibition curve) in assay [1] is 0.028 µM; in assay [2], 0.43 µM.
